The text below walks through data of ChEMBL document CHEMBL5291721, “A preclinical secondary pharmacology resource illuminates target-adverse drug reaction associations of marketed drugs” (Nat Commun, 2023).

Some results are limits rather than exact numbers.

Test [1] concerns the target T1, Amine oxidase [flavin-containing] A (Homo sapiens, UniProt P21397).
T1 sequence (P21397 whole entry): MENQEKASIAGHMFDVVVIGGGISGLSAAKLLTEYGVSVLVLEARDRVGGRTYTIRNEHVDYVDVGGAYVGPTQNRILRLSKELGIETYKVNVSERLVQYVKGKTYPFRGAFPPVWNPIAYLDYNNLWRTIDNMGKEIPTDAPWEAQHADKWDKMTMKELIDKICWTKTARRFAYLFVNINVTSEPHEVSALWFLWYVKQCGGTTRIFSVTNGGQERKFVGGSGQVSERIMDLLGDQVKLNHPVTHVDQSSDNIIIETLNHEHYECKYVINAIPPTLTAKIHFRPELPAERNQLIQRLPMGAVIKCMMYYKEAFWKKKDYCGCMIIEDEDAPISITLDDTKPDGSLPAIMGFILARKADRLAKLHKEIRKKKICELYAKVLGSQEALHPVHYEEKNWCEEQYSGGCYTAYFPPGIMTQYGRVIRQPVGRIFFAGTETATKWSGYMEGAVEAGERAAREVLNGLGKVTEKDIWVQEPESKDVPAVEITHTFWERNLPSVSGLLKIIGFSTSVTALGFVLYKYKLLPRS
Format: functional.

Test [2] deals with 3',5'-cyclic-AMP phosphodiesterase 4A (Homo sapiens, UniProt P27815). Format: functional.
Test [3] deals with Sodium-dependent dopamine transporter (Homo sapiens, UniProt Q01959).
For the next test, the target named is T2, Thromboxane A2 receptor (Homo sapiens, UniProt P21731).
T2 sequence (P21731 whole entry): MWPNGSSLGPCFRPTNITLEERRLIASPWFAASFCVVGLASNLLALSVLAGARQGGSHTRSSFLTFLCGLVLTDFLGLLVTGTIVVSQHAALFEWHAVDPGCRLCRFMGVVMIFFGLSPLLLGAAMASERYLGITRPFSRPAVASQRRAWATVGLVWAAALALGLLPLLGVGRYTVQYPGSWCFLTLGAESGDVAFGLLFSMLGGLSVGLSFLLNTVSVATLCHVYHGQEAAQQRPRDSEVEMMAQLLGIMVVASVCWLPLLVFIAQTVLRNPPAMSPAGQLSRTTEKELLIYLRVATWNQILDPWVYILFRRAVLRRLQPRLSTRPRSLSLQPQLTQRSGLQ
Type of test: functional, cell-based.

For a further test, the target named is Mu-type opioid receptor (Homo sapiens, UniProt P35372).
Test [4] deals with T3, Alpha-1A adrenergic receptor (Homo sapiens, UniProt P35348).
T3 sequence (P35348 whole entry): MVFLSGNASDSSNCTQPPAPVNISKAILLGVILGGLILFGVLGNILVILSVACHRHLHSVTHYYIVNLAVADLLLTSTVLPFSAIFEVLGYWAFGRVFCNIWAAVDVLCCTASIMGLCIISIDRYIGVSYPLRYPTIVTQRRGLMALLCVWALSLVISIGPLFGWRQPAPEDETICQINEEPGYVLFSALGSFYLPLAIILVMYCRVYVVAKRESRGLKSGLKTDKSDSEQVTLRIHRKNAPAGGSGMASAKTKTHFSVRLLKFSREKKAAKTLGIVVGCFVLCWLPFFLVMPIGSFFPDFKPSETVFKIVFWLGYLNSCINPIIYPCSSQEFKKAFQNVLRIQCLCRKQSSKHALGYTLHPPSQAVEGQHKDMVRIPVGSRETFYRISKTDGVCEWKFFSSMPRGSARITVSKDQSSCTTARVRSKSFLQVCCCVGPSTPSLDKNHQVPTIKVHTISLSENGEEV
Format: functional, cell-based.

Test [5] has as its target Gamma-aminobutyric acid receptor subunit alpha-1 (Rattus norvegicus, UniProt P62813).
A further test deals with Cannabinoid receptor 1 (Homo sapiens, UniProt P21554). Type of test: functional, cell-based.
For test [6], the target named is T4, Gastrin/cholecystokinin type B receptor (Homo sapiens, UniProt P32239).
T4 sequence (P32239 whole entry): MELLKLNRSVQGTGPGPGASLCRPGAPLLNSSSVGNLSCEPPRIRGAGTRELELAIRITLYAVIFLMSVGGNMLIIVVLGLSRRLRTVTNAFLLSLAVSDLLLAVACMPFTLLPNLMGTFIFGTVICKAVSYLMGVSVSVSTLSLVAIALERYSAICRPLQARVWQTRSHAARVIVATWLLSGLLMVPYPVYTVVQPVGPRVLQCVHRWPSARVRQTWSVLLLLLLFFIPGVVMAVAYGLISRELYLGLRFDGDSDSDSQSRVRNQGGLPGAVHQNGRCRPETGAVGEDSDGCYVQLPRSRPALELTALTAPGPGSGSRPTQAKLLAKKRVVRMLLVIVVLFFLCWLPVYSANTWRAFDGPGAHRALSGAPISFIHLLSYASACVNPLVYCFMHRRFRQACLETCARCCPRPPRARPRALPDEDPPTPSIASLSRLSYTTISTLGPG

For another test, the target named is Vasopressin V1a receptor (Homo sapiens, UniProt P37288).
Test [7] deals with T5, Muscarinic acetylcholine receptor M1 (Homo sapiens, UniProt P11229).
T5 sequence (P11229 whole entry): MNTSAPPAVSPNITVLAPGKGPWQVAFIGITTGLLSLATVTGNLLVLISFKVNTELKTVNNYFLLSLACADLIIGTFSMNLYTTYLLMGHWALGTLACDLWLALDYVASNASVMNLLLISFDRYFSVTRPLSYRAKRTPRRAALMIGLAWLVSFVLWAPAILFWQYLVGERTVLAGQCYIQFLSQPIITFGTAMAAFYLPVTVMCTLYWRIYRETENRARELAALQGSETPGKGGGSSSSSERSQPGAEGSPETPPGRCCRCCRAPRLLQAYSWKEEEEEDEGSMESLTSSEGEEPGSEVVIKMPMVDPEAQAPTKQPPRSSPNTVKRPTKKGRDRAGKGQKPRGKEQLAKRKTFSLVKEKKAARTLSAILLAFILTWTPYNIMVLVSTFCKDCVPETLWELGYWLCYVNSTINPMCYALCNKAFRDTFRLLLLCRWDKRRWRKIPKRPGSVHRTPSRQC
Format: functional.
Also: assay procedure not described here.

Chain of Mu-type opioid receptor (P35372 whole entry): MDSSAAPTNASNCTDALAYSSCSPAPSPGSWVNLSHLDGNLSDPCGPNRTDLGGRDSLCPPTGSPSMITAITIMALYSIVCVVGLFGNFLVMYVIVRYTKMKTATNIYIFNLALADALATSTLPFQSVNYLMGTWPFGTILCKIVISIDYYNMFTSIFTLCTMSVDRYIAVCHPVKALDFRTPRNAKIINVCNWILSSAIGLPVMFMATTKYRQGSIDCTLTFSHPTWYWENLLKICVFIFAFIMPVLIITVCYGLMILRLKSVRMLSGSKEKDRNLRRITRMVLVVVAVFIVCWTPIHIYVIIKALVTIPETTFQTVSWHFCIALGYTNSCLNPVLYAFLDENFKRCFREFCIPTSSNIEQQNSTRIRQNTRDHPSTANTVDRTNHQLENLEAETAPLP
Chain of 3',5'-cyclic-AMP phosphodiesterase 4A (P27815 whole entry): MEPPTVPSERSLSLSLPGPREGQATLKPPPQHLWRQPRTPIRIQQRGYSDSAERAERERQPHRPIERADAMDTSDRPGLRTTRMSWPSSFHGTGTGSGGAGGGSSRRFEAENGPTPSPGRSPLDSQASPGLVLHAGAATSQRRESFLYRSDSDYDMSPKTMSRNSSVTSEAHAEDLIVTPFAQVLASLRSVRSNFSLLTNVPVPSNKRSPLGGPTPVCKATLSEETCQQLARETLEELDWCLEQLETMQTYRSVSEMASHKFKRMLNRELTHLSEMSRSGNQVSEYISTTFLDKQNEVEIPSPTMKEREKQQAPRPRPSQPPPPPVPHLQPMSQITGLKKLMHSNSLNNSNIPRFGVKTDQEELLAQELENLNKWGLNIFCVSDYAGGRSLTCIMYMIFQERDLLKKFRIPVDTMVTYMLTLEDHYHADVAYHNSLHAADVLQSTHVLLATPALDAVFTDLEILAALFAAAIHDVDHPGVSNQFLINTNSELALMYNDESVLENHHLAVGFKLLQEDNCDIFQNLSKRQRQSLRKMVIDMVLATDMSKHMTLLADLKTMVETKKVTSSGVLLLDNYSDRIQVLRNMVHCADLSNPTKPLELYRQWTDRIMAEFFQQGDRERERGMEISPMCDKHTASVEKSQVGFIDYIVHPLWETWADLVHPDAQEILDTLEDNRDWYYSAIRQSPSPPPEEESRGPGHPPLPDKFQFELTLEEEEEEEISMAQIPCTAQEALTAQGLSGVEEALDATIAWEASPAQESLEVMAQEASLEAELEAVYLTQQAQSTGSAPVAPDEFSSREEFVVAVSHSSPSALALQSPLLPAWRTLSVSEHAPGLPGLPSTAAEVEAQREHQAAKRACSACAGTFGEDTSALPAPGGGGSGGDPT
Chain of Gamma-aminobutyric acid receptor subunit alpha-1 (P62813 whole entry): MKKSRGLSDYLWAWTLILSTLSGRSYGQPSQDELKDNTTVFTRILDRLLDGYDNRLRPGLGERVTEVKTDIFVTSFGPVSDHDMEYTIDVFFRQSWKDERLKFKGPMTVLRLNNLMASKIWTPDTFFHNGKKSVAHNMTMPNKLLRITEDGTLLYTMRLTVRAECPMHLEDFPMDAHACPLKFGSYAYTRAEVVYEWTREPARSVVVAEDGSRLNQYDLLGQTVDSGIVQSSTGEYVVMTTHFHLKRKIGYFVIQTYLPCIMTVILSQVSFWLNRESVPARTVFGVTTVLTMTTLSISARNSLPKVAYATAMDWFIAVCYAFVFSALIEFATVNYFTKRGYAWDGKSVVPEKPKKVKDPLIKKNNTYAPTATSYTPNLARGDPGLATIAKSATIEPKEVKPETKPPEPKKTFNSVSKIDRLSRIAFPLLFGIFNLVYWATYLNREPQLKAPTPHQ
Chain of Cannabinoid receptor 1 (P21554 whole entry): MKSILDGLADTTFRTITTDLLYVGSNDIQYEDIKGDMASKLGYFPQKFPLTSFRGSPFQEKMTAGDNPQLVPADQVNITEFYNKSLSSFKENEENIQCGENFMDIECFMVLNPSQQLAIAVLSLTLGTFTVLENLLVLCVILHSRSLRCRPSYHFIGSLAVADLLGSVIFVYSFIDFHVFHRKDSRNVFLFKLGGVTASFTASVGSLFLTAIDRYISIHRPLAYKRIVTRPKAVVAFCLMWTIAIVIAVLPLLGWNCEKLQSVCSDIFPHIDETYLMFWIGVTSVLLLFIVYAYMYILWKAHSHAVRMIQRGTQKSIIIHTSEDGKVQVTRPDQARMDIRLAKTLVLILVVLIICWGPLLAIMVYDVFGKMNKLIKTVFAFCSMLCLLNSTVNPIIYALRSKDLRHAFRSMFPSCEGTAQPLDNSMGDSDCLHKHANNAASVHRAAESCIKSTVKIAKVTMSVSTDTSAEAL
Chain of Sodium-dependent dopamine transporter (Q01959 whole entry): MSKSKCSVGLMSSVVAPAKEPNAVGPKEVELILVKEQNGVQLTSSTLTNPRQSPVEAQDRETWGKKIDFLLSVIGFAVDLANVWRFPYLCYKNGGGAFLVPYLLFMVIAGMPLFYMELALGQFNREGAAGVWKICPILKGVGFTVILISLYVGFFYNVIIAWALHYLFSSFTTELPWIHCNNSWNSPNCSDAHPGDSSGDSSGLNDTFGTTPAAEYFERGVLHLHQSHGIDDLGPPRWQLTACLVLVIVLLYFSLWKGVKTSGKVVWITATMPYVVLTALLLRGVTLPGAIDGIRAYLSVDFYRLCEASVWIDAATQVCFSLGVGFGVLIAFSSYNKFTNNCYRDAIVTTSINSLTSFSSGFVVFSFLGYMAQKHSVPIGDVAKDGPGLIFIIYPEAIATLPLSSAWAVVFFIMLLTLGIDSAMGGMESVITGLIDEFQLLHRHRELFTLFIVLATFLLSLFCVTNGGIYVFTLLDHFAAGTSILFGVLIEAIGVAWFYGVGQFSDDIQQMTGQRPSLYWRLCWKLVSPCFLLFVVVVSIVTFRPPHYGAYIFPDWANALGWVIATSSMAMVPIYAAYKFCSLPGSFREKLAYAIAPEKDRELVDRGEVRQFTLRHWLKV
Chain of Vasopressin V1a receptor (P37288 whole entry): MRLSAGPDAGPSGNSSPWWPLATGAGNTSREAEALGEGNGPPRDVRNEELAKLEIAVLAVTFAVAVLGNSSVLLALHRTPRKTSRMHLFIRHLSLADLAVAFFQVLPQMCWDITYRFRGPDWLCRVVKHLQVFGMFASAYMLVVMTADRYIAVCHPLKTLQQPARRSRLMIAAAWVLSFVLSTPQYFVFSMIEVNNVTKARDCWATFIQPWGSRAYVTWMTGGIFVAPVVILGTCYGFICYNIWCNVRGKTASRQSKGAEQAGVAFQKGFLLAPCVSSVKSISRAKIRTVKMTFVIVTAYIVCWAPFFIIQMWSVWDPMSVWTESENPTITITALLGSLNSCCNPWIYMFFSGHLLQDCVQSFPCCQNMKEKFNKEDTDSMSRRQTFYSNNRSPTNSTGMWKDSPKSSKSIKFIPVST

What is called AC50 is the concentration giving half of the maximal activity seen. On to `O=C1c2c(O)c(=O)ccn2N([C@@H]2c3ccccc3SCc3c2ccc(F)c3F)[C@@H]2COCCN12` [BALOXAVIR], for which the AC50 in [1] was above 30 µM; in test [2], above 30 µM; in test [3], above 30 µM; on Thromboxane A2 receptor, above 30 µM; at Mu-type opioid receptor, 22 µM.

For the molecule `C(=N\NC1=NCCN1)/c1c2ccccc2c(/C=N/NC2=NCCN2)c2ccccc12` [BISANTRENE], the AC50 in [1] is above 30 µM; in test [2] it was above 30 µM; in [3] it was 9.57 µM; on Thromboxane A2 receptor, above 30 µM; on Mu-type opioid receptor, 5.36 µM.

As to `CCO/N=C(\C(=O)N[C@@H]1C(=O)N2C(C(=O)[O-])=C(Sc3nc(-c4cc[n+](C)cc4)cs3)CS[C@H]12)c1nsc(N)n1` [CEFTAROLINE], the AC50 (in [1]; in [2]; in [3]; at Thromboxane A2 receptor; at Mu-type opioid receptor) was above 30 µM each time.

In the case of `Cc1cc(O)cc(C)c1Cl` [CHLOROXYLENOL], the AC50 was above 30 µM in test [1]; above 30 µM in [2]; above 30 µM in [3]; 28.3 µM on Thromboxane A2 receptor; above 30 µM at Mu-type opioid receptor.

For the molecule `CC(=O)OCC(=O)[C@@]1(O)CC[C@H]2[C@@H]3CCC4=CC(=O)CC[C@]4(C)[C@H]3C(=O)C[C@@]21C` [CORTISONE ACETATE], the AC50 (in test [4]; in [5]; at Cannabinoid receptor 1) was above 30 µM in each case.

Take `C[N+](C)(C)CCCCCCCCCC[N+](C)(C)C` [DECAMETHONIUM]: the AC50 (in test [1]; in test [2]; in test [3]; at Thromboxane A2 receptor; at Mu-type opioid receptor) was above 30 µM in each case.

With `O=C1c2ccccc2C(=O)C1C(=O)C(c1ccccc1)c1ccccc1` [DIPHENADIONE], the AC50 in [1] was above 30 µM; in [2] it was above 30 µM; in test [3], above 30 µM; at Thromboxane A2 receptor, 1.84 µM; at Mu-type opioid receptor, above 30 µM.

Turning to `CCC(=O)O[C@H]1[C@H](O[C@@H]2[C@@H](C)[C@H](O[C@H]3C[C@@](C)(OC)[C@@H](O)[C@H](C)O3)[C@@H](C)C(=O)O[C@H](CC)[C@@](C)(O)[C@H](O)[C@@H](C)C(=O)[C@H](C)C[C@@]2(C)O)O[C@H](C)C[C@@H]1N(C)C` [ERYTHROMYCIN PROPIONATE], the AC50 was above 30 µM in test [1]; above 30 µM in test [2]; 29.1 µM in [3]; above 3 µM on Thromboxane A2 receptor; 16.2 µM at Mu-type opioid receptor.

As for `CCOC(=O)c1ccc(O)cc1` [ETHYLPARABEN], the AC50 (in test [1]; in test [2]; in test [3]; at Thromboxane A2 receptor; at Mu-type opioid receptor) was above 30 µM each time.

Take `O=C1[C@H](CC[C@H](O)c2ccc(F)cc2)[C@@H](c2ccc(O)cc2)N1c1ccc(F)cc1` [EZETIMIBE]: the AC50 in test [1] was above 30 µM; in test [2] it was above 30 µM; in [3] it was 19.5 µM; at Thromboxane A2 receptor, 7.68 µM; on Mu-type opioid receptor, 13.9 µM.

As to `O=C(COc1ccc(Cl)cc1)N1CCN(Cc2ccc3c(c2)OCO3)CC1` [FIPEXIDE], the AC50 is above 30 µM in [1]; above 30 µM in [2]; 12.9 µM in test [3]; 11.3 µM on Thromboxane A2 receptor; 18.4 µM on Mu-type opioid receptor.

As for `Cc1c(-c2ccccc2)oc2c(C(=O)OCCN3CCCCC3)cccc2c1=O` [FLAVOXATE], the AC50 in test [1] was above 30 µM; in [2], 6.12 µM; in test [3], above 30 µM; at Thromboxane A2 receptor it was above 30 µM; on Mu-type opioid receptor, 3.05 µM.

`CCC(=O)c1c(O)cc(O)cc1O` [FLOPROPIONE]: the AC50 (in test [1]; in test [2]; in [3]; at Thromboxane A2 receptor; on Mu-type opioid receptor) was above 30 µM each time.

Turning to `CC1(C)O[C@@H]2C[C@H]3[C@@H]4C[C@H](F)C5=CC(=O)CC[C@]5(C)[C@H]4[C@@H](O)C[C@]3(C)[C@]2(C(=O)CO)O1` [FLURANDRENOLIDE], the AC50 (in test [1]; in [2]; in [3]; on Thromboxane A2 receptor; on Mu-type opioid receptor) was above 30 µM in each case.

In the case of `CC(C)NNC(=O)c1ccncc1` [IPRONIAZID], the AC50 (in test [4]; on Cannabinoid receptor 1) was above 30 µM in each case.

On to `C#C[C@]1(O)CC[C@H]2[C@@H]3CCC4=CC(=O)CC[C@@H]4[C@H]3CC[C@@]21CC` [LEVONORGESTREL], for which the AC50 (in [1]; in test [2]; in test [3]; on Thromboxane A2 receptor; on Mu-type opioid receptor) was above 30 µM in each case.

As to `Cc1cccc(C)c1OCC(C)N` (centres undefined) [MEXILETINE], the AC50 (in test [4]; in test [6]; on Cannabinoid receptor 1) was above 30 µM in each case.

For `O=C1CC[C@@]2(O)[C@H]3Cc4ccc(O)c5c4[C@@]2(CCN3CC2CC2)[C@H]1O5` [NALTREXONE], the half-maximal activity concentration (AC50) (in [1]; in test [2]; in test [3]; on Thromboxane A2 receptor) was above 30 µM each time.

With `CCc1nn(CCCN2CCN(c3cccc(Cl)c3)CC2)c(=O)n1CCOc1ccccc1` [NEFAZODONE], the AC50 is 2.2 µM in test [4]; above 30 µM in test [6]; above 10 µM in test [5]; above 30 µM at Cannabinoid receptor 1; above 10 µM at Vasopressin V1a receptor; above 10 µM in test [7].

On to `COC(=O)C1=C(C)NC(C)=C(C(=O)OCC(C)C)C1c1ccccc1[N+](=O)[O-]` (centres undefined) [NISOLDIPINE], for which the AC50 in [4] is above 30 µM; in [5], above 10 µM; on Cannabinoid receptor 1, 12 µM.

Regarding `NC1=NC(=O)C(c2ccccc2)O1` (centres undefined) [PEMOLINE], the values for the AC50 in test [6] and in test [5] were above 30 µM and above 10 µM, respectively.

As to `CNC(=O)c1cc(Oc2ccc(NC(=O)Nc3ccc(Cl)c(C(F)(F)F)c3)cc2)ccn1` [SORAFENIB], the AC50 was above 30 µM in test [4]; above 10 µM in test [6]; above 30 µM in test [5]; above 30 µM at Cannabinoid receptor 1; above 30 µM at Vasopressin V1a receptor; above 30 µM in [7].
